From US4605655A, “Antipsychotic 1-fluorophenylbutyl-4-(2-pyrimidinyl)piperazine derivatives” (Bristol-Myers Company, priority 1984, dated 1986)
“Also recorded” adds a separate entry of the source. Like-named read-outs stand apart in the source and are kept apart here.

Key:
[1] = Conditioned Avoidance Response (CAR); assay type: in vivo, trained fasted rats
From the text: 1. Conditioned Avoidance Response (CAR)--measure of a drug's tranquilizing activity as determined by its attenuation of avoidance response to electrical shock in trained fasted rats. cf: Albert, Pharmacologist, 4, 152 (1962); Wu, et al, J. Med. Chem., 12, 876-881 (1969).

[2] = tested on: apomorphine stereotypy (dopaminergic activity); assay: Inhibition of Apomorphine-Induced (APO) Stereotypy; assay type: in vivo, rats
From the text: 2. Inhibition of Apomorphine-Induced (APO) Stereotype--an assessment of blockade of dopaminergic activity in rats as measured by attentuation of the behavioral syndrome caused by the dopamine agonist, apomorphine. cf. Janssen, et al, Arzneimittel. Forsch., 17, 841 (1966).

[3] = Catalepsy; assay type: in vivo, rats; conditions: for ED50: rat, in vivo, po
[4] = Catalepsy Reversal (neuroleptic-induced catalepsy); assay type: in vivo, rat; conditions: for Catalepsy Reversal ED50: p.o.; for reversal of neuroleptic-induced catalepsy, potency relative to racemic material: compared with racemic BMY 14802
From the text: 4. Catalepsy Reversal--measure of a drug's ability to reverse neuroleptic-induced catalepsy in the rat.

[5] = tested on: norepinephrine lethality (α1-adrenergic blockade); assay: Inhibition of Norepinephrine (NE) Lethality; assay type: in vivo; conditions: po; read-out: Inhibition of NE Lethality ED50 (alpha-block)
From the text: 5. Inhibition of Norepinephrine Lethality--drug inhibition of the lethality of noradrenergic drug norepinephrine indicates α1 -adrenergic blockade.

[6] = tested on: Dopamine receptor (striatal tissue); assay: Dopamine (DA) receptor binding vs. [^3 H]spiperone
From the text: (§1) As further indication of the psychotropic activity and specificity of the instant compounds, state of the art in vitro central nervous system receptor binding methodology can be employed. […] Inhibition of radiolabeled ligand binding to such specific high affinity sites is considered a measure of the compound's ability to affect corresponding central nervous system function or cause side effects in vivo. This principal is employed in the following assays which are given by way of example.
Dopamine Burt, et al., Molec. Pharmacol., 12, 800

[7] = tested on: α1 receptor; assay: α1 binding vs. [^3 H]WB4101
From the text: as §1

[8] = target: Muscarinic Cholinergic receptor; assay: Muscarinic cholinergic receptor binding
From the text: as §1
Cholinergic Yamamura, et al., Proc. Natn. Acad. Sci.

[9] = tested on: serotonergic binding sites; assay: Serotonergic receptor binding; conditions: in words
From the text: (§2) As further indication of the psychotropic activity and specificity of the instant compounds, state of the art in vitro central nervous system receptor binding methodology can be employed. Certain compounds (commonly referred to as ligands) have been identified which preferentially bind to specific high affinity sites in brain tissue dealing with psychotropic activity or potential for side effects. Inhibition of radiolabeled ligand binding to such specific high affinity sites is considered a measure of the compound's ability to affect corresponding central nervous system function or cause side effects in vivo. This principal is employed in the following assays which are given by way of example.
Peroutka and Snyder, Molec. Pharmacol.,

[10] = tested on: α2-adrenergic binding sites; assay: α2-adrenergic receptor binding; conditions: in words
From the text: as §2
Rosenblatt, et al., Brain Res., 160: 186
(1979); U'Prichard, et al., Science, 199:
197 (1978); U'Prichard, et al., Molec.

[11] = tested on: GABA binding sites; assay: GABA receptor binding; conditions: in words
From the text: as §2

[12] = tested on: opiate binding sites; assay: Opiate receptor binding; conditions: in words
From the text: as §2

[13] = Rattus norvegicus, po; read-out: CAR ED50
[14] = Rattus norvegicus, po; read-out: Inhibition of APO-Stereotypy ED50
[15] = in rats; compared with racemic BMY 14802; in words

CN1CCN(C2=Nc3cc(Cl)ccc3Nc3ccccc32)CC1 [Clozapine, reference compound]
ED50 [1, 13]: 24 mg/kg | ED50 [2, 14]: 49.2 mg/kg | ED50 [3]: > 200 mg/kg | Catalepsy Reversal ED50 [4]: I | ED50 [5]: 3.5 mg/kg

OC(CCCN1CCN(c2ncccn2)CC1)c1ccc(F)cc1 (stereo not shown) [des-fluoro analog of MJ 14802]
time after which CAR activity is lost ([1]; rat, in vivo): lost after three hours

CSc1ccc2c(c1)N(CCC1CCCCN1C)c1ccccc1S2 (stereo not shown) [Thioridazine, reference compound]
ED50 [1, 13]: 126 mg/kg | ED50 [2, 14]: 280 mg/kg | ED50 [3]: 45.2 mg/kg | Catalepsy Reversal ED50 [4]: I | ED50 [5]: 2.2 mg/kg

Cl.OC(CCCN1CCN(c2ncc(F)cn2)CC1)c1ccc(F)cc1 (racemic) [MJ 14802, 4-[4-[5-Fluoro-2-pyrimidinyl]-1-piperazinyl]-1-(4-fluorophenyl)butanol Hydrochloride]
ED50 ([1]; Rattus norvegicus, po, read-out: CAR ED50): 26.4 mg/kg | duration of action in the inhibition of the CAR ([1]; rat, in vivo): > 7 h | ED50 ([2]; Rattus norvegicus, po, read-out: Inhibition of APO-Stereotypy ED50): 33 mg/kg | duration of action in the inhibition of apomorphine stereotypy ([2]; rat, in vivo): 4 h | catalepsy production ([3]; in words): fails to cause catalepsy | ED50 [3]: > 100 mg/kg | ED50 ([4]; Rattus norvegicus, po, read-out: Catalepsy Reversal ED50): 16.9 mg/kg | reversal of neuroleptic-induced catalepsy ([4]; in words): reverses neuroleptic-induced catalepsy | ED50 [5]: > 100 mg/kg | dopamine receptor binding ([6]; in words): very weak dopamine receptor binding | IC50 ([6]; vs. [^3 H]spiperone, read-out: DA Binding (vs. [^3 H]spip.) IC50): 6400 nM | α1-adrenergic activity ([7]; in words): lacks anticholinergic and α1 -adrenergic activities | IC50 ([7]; vs. [^3 H]WB4101): 520 nM | IC50 [8]: > 1000 nM | activity at cholinergic binding sites ([8]; in words, Hydrochloride): essentially inactive; also recorded: lacks anticholinergic | activity at serotonergic binding sites [9]: essentially inactive | activity at α2-adrenergic binding sites [10]: essentially inactive | activity at GABA binding sites [11]: essentially inactive | activity at opiate binding sites [12]: essentially inactive

O.OC(CCCN1CCN(c2ncc(F)cn2)CC1)c1ccc(F)cc1 (single isomer, unassigned) [(-)-- enantiomer, (-)-α-(4-Fluorophenyl)-4-(5-fluoro-2-pyrimidinyl)-1-piperazinebutanol Hydrate]
inhibition of apomorphine stereotypy, potency relative to racemic material [2, 15]: more potent than racemic material | reversal of neuroleptic-induced catalepsy, potency relative to racemic material ([4]; in words): less potent

OC(CCCN1CCN(c2ncc(F)cn2)CC1)c1ccc(F)cc1 (single isomer, unassigned) [(+)-- enantiomer of BMY 14802, (+)--α-(4-Fluorophenyl)-4-(5-fluoro-2-pyrimidinyl)-1-piperazinebutanol Hydrate]
inhibition of apomorphine stereotypy, potency relative to racemic material [2, 15]: The converse was true | reversal of neuroleptic-induced catalepsy, potency relative to racemic material ([4]; in words): The converse was true
